Tests used:
ATM = target: T1, ATM (Homo sapiens, UniProt Q13315); test: ATM inhibition test (phosphorylation of Chk2 generated by ionizing radiation, AlphaScreen SureFire); format: cell-based; conditions: phosphorylated Chk2 in NCI-H460 cells, ionizing radiation 8Gy, 1 hour after test compound treatment; read-out: ATM inhibitory activity
T1 construct: detecting phosphorylation of Chk2 in a human non-small cell lung cancer cell line NCI-H460 (ATCC company); host or cells: NCI-H460 human non-small cell lung cancer cells
Outline: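 NCI-H460 cells treated with compound for 1 hour, then irradiated with 8Gy and incubated 1 hour at 37° C. Phospho-Chk2 measured by AlphaScreen SureFire. Inhibition ratio calculated relative to untreated irradiated and non-irradiated wells.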

[1] = system: human non-small cell lung cancer cell line NCI-H460; test: Cell proliferation inhibition test by sensitivity-enhancing to ionizing radiation (Cell Titer Glo); format: cell-based; conditions: concentration in which SER became 2, NCI-H460 cells, ionizing radiation 2 Gy, cultured 120 hour
Protocol: A human non-small cell lung cancer cell line NCI-H460 (ATCC company) was adjusted so as to be 2×10^3 cells/mL in a RPMI-1640 medium containing penicillin/streptomycin and FBS having a final concentration of 10%, and this was seeded by 100 μL per well in 96-well CellBIND® plates (Corning International Inc.). After 24 hours, the medium of cells was replaced with 100 μL of a medium including serially diluted liquid of the test compound or DMSO having a final concentration of 0.1%. 30 minutes after the medium was replaced, half of the plates were irradiated with ionizing radiation 2 Gy (Faxitron Bioptics, LLC, RX-650 type). The cells of the plates irradiated with ionizing radiation and the plates not being irradiated with ionizing radiation were cultured at 37° C. for 120 hour in 5% CO2. After a Cell Titer Glo reaction liquid of an equal volume was added to each well, the amount of luminescence was measured, according to the instruction book of Cell Titer Glo (Promega Corporation). Since the amount of luminescence is proportional to the ATP concentration in cells, the amount of luminescence was used as an indicator of the number of viable cells. Sensitivity-enhancing effects (SER) to ionizing radiation by the test compound was calculated by the following equation. SER=(amount of luminescence of wells including DMSO having a final concentration of 0.1% in the plates irradiated with ionizing radiation×amount of luminescence of wells including a compound in the plates not being irradiated with ionizing radiation)/(amount of luminescence of wells including the test compound in the plates irradiated with ionizing radiation×amount of luminescence of wells including DMSO having a final concentration of 0.1% in the plates not being irradiated with ionizing radiation)
SER at each compound concentration was plotted by nonlinear regression fit (FitModel (205)) by a sigmoidal dose-response equation using XLfit software (IDBS), and the concentration (SER2) in which SER became 2 was calculated.

T1 sequence (Q13315 whole entry): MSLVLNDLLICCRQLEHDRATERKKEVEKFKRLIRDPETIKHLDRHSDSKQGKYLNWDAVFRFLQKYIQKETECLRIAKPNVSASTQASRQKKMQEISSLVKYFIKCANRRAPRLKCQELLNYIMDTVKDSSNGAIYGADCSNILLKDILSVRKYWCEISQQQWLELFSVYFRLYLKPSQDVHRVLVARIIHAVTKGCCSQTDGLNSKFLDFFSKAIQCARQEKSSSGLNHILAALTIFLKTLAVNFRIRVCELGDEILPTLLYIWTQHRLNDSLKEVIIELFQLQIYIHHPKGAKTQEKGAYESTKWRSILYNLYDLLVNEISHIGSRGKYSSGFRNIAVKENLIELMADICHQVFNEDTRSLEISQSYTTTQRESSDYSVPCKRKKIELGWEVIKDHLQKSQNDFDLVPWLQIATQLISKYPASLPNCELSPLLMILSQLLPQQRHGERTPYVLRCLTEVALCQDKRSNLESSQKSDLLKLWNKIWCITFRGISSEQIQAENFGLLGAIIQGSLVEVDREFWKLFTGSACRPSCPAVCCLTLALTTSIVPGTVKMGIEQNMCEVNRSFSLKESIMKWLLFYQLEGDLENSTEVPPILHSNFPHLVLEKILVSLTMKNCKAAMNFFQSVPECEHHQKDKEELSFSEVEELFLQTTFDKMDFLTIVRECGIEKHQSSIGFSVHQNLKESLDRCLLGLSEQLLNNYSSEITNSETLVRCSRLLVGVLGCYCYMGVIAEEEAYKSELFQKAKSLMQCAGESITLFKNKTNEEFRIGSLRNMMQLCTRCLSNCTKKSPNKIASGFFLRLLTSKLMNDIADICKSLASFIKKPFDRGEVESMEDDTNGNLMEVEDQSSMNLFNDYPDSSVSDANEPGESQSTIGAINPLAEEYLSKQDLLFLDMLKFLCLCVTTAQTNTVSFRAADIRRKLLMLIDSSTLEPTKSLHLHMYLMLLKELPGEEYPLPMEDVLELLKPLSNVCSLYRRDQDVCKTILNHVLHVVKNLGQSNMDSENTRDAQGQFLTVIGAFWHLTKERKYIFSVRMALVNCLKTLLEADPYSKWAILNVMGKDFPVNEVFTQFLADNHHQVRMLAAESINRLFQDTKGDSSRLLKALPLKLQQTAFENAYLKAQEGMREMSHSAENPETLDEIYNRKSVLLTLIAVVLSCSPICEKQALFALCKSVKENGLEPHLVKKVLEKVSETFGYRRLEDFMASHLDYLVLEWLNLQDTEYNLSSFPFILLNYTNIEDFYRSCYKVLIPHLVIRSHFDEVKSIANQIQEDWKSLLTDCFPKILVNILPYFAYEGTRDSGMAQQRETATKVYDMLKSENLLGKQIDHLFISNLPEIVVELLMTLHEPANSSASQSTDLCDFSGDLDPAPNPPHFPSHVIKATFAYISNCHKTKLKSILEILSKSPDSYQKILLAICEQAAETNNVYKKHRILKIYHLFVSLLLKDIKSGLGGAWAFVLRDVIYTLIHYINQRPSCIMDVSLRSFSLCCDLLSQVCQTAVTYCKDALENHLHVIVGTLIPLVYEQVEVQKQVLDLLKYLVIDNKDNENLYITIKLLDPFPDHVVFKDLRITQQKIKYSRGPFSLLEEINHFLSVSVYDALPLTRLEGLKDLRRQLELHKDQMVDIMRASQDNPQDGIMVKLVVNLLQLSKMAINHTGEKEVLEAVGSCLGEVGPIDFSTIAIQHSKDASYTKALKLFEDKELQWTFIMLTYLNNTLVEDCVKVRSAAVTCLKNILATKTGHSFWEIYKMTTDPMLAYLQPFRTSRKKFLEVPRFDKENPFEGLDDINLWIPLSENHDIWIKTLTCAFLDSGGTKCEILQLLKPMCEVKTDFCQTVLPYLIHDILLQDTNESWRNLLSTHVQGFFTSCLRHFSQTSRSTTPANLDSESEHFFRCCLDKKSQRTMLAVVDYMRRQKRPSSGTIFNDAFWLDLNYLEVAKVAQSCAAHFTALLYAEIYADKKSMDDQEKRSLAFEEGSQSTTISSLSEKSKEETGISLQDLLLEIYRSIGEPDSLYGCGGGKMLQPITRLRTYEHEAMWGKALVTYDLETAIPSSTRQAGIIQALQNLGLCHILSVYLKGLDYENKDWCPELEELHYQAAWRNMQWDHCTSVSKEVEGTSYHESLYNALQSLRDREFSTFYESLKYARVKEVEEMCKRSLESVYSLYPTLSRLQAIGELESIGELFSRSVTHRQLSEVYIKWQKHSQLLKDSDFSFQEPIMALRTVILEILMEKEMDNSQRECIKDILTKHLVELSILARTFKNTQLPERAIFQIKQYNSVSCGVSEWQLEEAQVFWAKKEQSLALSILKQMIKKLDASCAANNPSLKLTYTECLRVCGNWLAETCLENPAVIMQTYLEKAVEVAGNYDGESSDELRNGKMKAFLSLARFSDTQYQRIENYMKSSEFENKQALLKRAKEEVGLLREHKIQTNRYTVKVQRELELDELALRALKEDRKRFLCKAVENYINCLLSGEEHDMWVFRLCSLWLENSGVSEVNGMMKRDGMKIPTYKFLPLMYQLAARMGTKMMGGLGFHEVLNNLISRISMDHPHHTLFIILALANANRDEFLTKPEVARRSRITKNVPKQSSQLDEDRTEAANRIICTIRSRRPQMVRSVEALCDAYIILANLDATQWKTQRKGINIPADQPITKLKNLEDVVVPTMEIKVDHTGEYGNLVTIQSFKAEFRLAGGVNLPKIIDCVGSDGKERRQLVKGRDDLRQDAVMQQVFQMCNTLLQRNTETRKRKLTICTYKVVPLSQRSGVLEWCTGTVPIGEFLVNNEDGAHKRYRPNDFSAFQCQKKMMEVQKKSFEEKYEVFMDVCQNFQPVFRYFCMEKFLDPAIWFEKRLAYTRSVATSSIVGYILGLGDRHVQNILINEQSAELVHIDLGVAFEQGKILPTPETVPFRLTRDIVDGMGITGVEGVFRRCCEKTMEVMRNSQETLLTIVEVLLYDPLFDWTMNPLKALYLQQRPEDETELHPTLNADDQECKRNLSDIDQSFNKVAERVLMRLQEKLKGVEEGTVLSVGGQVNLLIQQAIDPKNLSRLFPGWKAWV

Row | Molecule | IC50 (ATM) | SER2 (concentration at which the radiation sensitivity-enhancement ratio reaches 2) ([1]; Homo sapiens, NCI-H460, 120 h) | SER2 (concentration at which the radiation sensitivity-enhancement ratio reaches 2) [1]
1 | CCC(Nc1ccc2c(c1)Sc1cccc(-c3cc(N4CCOCC4)cc(=O)[nH]3)c1S2)c1ccc(C)cn1 (stereo not shown) [Example 1-12-118, 6-(7-((1-(5-Methylpyridin-2-yl)propyl)amino)thianthren-1-yl)-4-morpholino pyridin-2(1H)-one] | < 0.1 µM | 100 to 500 nM | –
2 | COc1cncc(CN2CCC(Nc3ccc4c(c3)Cc3cccc(-c5cc(N6CCOCC6)cc(=O)[nH]5)c3O4)CC2)n1 [Example 2-28-23, 6-(7-((1-((6-Methoxypyrazin-2-yl)methyl)piperidin-4-yl)amino)-9H-xanthen-4-yl)-4-morpholino pyridin-2(1H)-one] | < 0.1 µM | 500 to 2000 nM | –
3 | 6-(7-(((5-Methyl pyridin-2- yl)(1-methyl pyrrolidin-3-yl) methyl)amino)thianthren-1- yl)-4-morpholino pyridin-2 (1H)-one [Example 1-22-9] | < 0.1 µM | – | < 100 nM
4 | Cc1ccc(C(Nc2ccc3c(c2)Sc2cccc(-c4cc(N5CCOCC5)cc(=O)[nH]4)c2S3)C2CCN(C)CC2)nc1 (single isomer, unassigned) [Example 1-51-1, 6-(7-(((1-methylpiperidin-4-yl)(5-methylpyridin-2-yl)methyl)amino)thianthren-1-yl)-4-morpholinopyridin-2(1H)-one] | < 0.1 µM | – | < 100 nM
5 | O=c1cc(N2CCOCC2)cc(-c2cccc3c2Sc2ccc(NC(CF)CN4CCOCC4)cc2S3)[nH]1 (single isomer, unassigned) [Example 1-41-1-2, 6-(7-((1-fluoro-3-morpholinopropan-2-yl)amino)thianthren-1-yl)-4-morpholinopyridin-2(1H)-one] | < 0.1 µM | < 100 nM | –
6 | O=c1cc(N2CCOCC2)cc(-c2cccc3c2Oc2ccc(NCc4cncc(C5CCCC5)c4)cc2S3)[nH]1 [Example 4-8-15, 6-(8-(((5-Cyclopentylpyridin-3-yl)methyl)amino)phenoxathiin-4-yl)-4-morpholino pyridin-2(1H)-one] | < 0.1 µM | 500 to 2000 nM | –

Continued, in another order:

Row | IC50 (ATM) | Molecule | SER2 (concentration at which the radiation sensitivity-enhancement ratio reaches 2) ([1]; Homo sapiens, NCI-H460, 120 h) | SER2 (concentration at which the radiation sensitivity-enhancement ratio reaches 2) [1]
7 | < 0.1 µM | COC(C)(C)c1cncc(CNc2ccc3c(c2)Cc2cccc(-c4cc(N5CCOCC5)cc(=O)[nH]4)c2O3)c1 [Example 2-14-12, 6-(7-(((5-(2-Methoxypropan-2-yl)pyridin-3-yl)methyl)amino)-9H-xanthen-4-yl)-4-morpholino pyridin-2 (1H)-one] | 100 to 500 nM | –
8 | < 0.1 µM | Cc1ccc(C(Nc2ccc3c(c2)Sc2cccc(-c4cc(N5CCOCC5)cc(=O)[nH]4)c2S3)C2CC2)nc1 (stereo not shown) [Example 1-12-123, 6-(7-((Cyclopropyl(5-methylpyridin-2-yl)methyl)amino)thianthren-1-yl)-4-morpholino pyridin-2(1H)-one] | 100 to 500 nM | –
9 | < 0.1 µM | CN(C)c1nccc(CNc2ccc3c(c2)Cc2cccc(-c4cc(N5CCOCC5)cc(=O)[nH]4)c2O3)n1 [Example 2-13-5, 6-(7-(((2-(Dimethylamino)pyrimidin-4-yl)methyl)amino)-9H-xanthen-4-yl)-4-morpholino pyridin-2(1H)-one] | 500 to 2000 nM | –
10 | < 0.1 µM | COC[C@H](CN1C[C@@H](C)O[C@@H](C)C1)Nc1ccc2c(c1)Sc1cccc(-c3cc(N4CCOCC4)cc(=O)[nH]3)c1S2 [Example 1-46-11, 6-(7-(((S)-1-((2S,6R)-2,6- Dimethylmorpholino)-3-methoxypropan-2-yl)amino)thianthren-1-yl)-4-morpholino pyridin-2(1H)-one] | < 100 nM | –
11 | < 0.1 µM | Cc1ccc(C(Nc2ccc3c(c2)Sc2cccc(-c4cc(N5CCOCC5)cc(=O)[nH]4)c2S3)[C@H]2CN(CCN(C)C)CCO2)nc1 (single isomer, unassigned) [Example 10-2] | < 100 nM | –
